According to US9833497B2, “Human originated EGF domain proteins and use of the same” (CHENGDU SOURCEBIO LIMITED-LIABILITY COMPANY, priority 2013, dated 2017):

Tests used:
Assay type in all cases: cell-based
Citrobacter diversus = assay: MIC against Gram-negative bacteria: Citrobacter diversus; settings: 5×10^5 CFU/mL; for MIC against C. diversus: Citrobacter diversus
Summary of the method: (§1)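 Growth inhibition by human EGF domain proteins was scored in LB liquid culture seeded at 5×10^5 CFU/mL. Protein was applied as a two-fold dilution series in triplicate, with shaking incubation at 37° C; MIC is the lowest concentration giving no growth.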

Proteus vulgaris = assay: MIC against Gram-negative bacteria: Proteus vulgaris; settings: 5×10^5 CFU/mL; for MIC against P. vulgaris: Proteus vulgaris
Summary of the method: as §1

Pseudomonas aeruginosa = assay: MIC against Gram-negative bacteria: Pseudomonas aeruginosa; settings: 5×10^5 CFU/mL; for MIC against P. aeruginosa: Pseudomonas aeruginosa
Summary of the method: as §1

Serratia marcescens = assay: MIC against Gram-negative bacteria: Serratia marcescens; settings: 5×10^5 CFU/mL; for MIC against S. marcescens: Serratia marcescens
Summary of the method: as §1

E. coli BL21 = assay: MIC against Gram-negative bacteria: E. coli BL21; settings: E. coli BL21, 5×10^5 CFU/mL
Summary of the method: as §1

Proteus mirabilis = assay: MIC against Gram-negative bacteria: Proteus mirabilis; settings: 5×10^5 CFU/mL; for MIC against P. mirabilis: Proteus mirabilis
Summary of the method: as §1

Klebsiella pneumonia = assay: MIC against Gram-negative bacteria: Klebsiella pneumonia; settings: 5×10^5 CFU/mL; for MIC against K. pneumonia: Klebsiella pneumonia
Summary of the method: as §1

Enterobacter cloacae = assay: MIC against Gram-negative bacteria: Enterobacter cloacae; settings: 5×10^5 CFU/mL; for MIC against E. cloacae: Enterobacter cloacae
Summary of the method: as §1

E. coli DH5α = assay: Antibacterial activity: MIC and growth curve against E. coli DH5α in 96-well plate; settings: minimal inhibitory concentration against E. coli DH5α; 96-well plate, 5×10^5 CFU/mL, 37° C., judged after 8 h
Summary of the method: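 MIC taken as lowest protein level with no bacterial growth, tracked by A600 every 30 min during 37 °C, 175 rpm culture. Two-fold protein series 50-12.5 μg/mL final, triplicate wells, against 5×10^5 CFU/mL of LB-washed mid-log cells.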

Moraxella catarrhalis = assay: MIC against Gram-negative bacteria: Moraxella catarrhalis; settings: 5×10^5 CFU/mL; for MIC against M. catarrhalis: Moraxella catarrhalis
Summary of the method: as §1

Aeromonas hydrophila = assay: MIC against Gram-negative bacteria: Aeromonas hydrophila; settings: 5×10^5 CFU/mL; for MIC against A. hydrophila: Aeromonas hydrophila
Summary of the method: as §1

[1] = C. diversus, 10 h cultivation at 37° C.
[2] = P. vulgaris, 10 h cultivation at 37° C.
[3] = P. aeruginosa, 10 h cultivation at 37° C.
[4] = S. marcescens, 10 h cultivation at 37° C.
[5] = P. mirabilis, 10 h cultivation at 37° C.
[6] = K. pneumonia, 10 h cultivation at 37° C.
[7] = E. cloacae, 10 h cultivation at 37° C.
[8] = M. catarrhalis, 10 h cultivation at 37° C.
[9] = A. hydrophila, 10 h cultivation at 37° C.

| Substance | MIC against C. diversus (Citrobacter diversus; 10 h cultivation at 37° C.) [µg/mL] | MIC against P. vulgaris (Proteus vulgaris; 10 h cultivation at 37° C.) [µg/mL] | MIC against P. aeruginosa (Pseudomonas aeruginosa; 10 h cultivation at 37° C.) [µg/mL] | MIC against S. marcescens (Serratia marcescens; 10 h cultivation at 37° C.) [µg/mL] | MIC against E. coli BL21 (E. coli BL21; 10 h cultivation at 37° C.) [µg/mL] | MIC against P. mirabilis (Proteus mirabilis; 10 h cultivation at 37° C.) [µg/mL] | MIC against K. pneumonia (Klebsiella pneumonia; 10 h cultivation at 37° C.) [µg/mL] | MIC against E. cloacae (Enterobacter cloacae; 10 h cultivation at 37° C.) [µg/mL] | MIC (E. coli DH5α) [µg/mL] | MIC against M. catarrhalis (Moraxella catarrhalis; 10 h cultivation at 37° C.) [µg/mL] | MIC against A. hydrophila (Aeromonas hydrophila; 10 h cultivation at 37° C.) [µg/mL] | MIC against C. diversus (Citrobacter diversus; 96-well plate, 37° C., 10 h) [µg/mL] | MIC against P. vulgaris (Proteus vulgaris; 96-well plate, 37° C., 10 h) [µg/mL] | MIC against P. aeruginosa (Pseudomonas aeruginosa; 96-well plate, 37° C., 10 h) [µg/mL] | MIC against S. marcescens (Serratia marcescens; 96-well plate, 37° C., 10 h) [µg/mL] | MIC against E. coli BL21 (E. coli BL21; 96-well plate, 37° C., 10 h) [µg/mL] | MIC against P. mirabilis (Proteus mirabilis; 96-well plate, 37° C., 10 h) [µg/mL] | MIC against K. pneumonia (Klebsiella pneumonia; 96-well plate, 37° C., 10 h) [µg/mL] | MIC against E. cloacae (Enterobacter cloacae; 96-well plate, 37° C., 10 h) [µg/mL] | MIC against M. catarrhalis (Moraxella catarrhalis; 96-well plate, 37° C., 10 h) [µg/mL] | other results |
| --- | --- | --- | --- | --- | --- | --- | --- | --- | --- | --- | --- | --- | --- | --- | --- | --- | --- | --- | --- | --- | --- |
| PRT1432 (PARTCHSPAHSPCHIHAHCLFERNGAVSCQCNVGWAGNGNVCG; listed as Homo sapiens) | 12.5 | 25 | 50 | 12.5 | 12.5 | 50 | 12.5 | 50 | 25 | 25 | 25 |  |  |  |  |  |  |  |  |  |  |
| PRT262 (CLIHHGGCHIHAECIPTGPQQVSCSCREGYSGDGIRTC; listed as Homo sapiens) |  |  |  |  |  |  |  |  | 12.5 |  |  |  |  |  |  |  |  |  |  |  | MIC (μg/mL) C. diversus (Citrobacter diversus; [1]): 50 µg/mL; MIC (μg/mL) P. vulgaris (Proteus vulgaris; [2]): 25 µg/mL; MIC (μg/mL) P. aeruginosa (Pseudomonas aeruginosa; [3]): 50 µg/mL; MIC (μg/mL) S. marcescens (Serratia marcescens; [4]): 12.5 µg/mL; MIC (μg/mL) E. coli BL21 (E. coli BL21; 10 h cultivation at 37° C.): 25 µg/mL; MIC (μg/mL) P. mirabilis (Proteus mirabilis; [5]): 12.5 µg/mL; MIC (μg/mL) K. pneumonia (Klebsiella pneumonia; [6]): 25 µg/mL; MIC (μg/mL) E. cloacae (Enterobacter cloacae; [7]): 12.5 µg/mL; MIC (μg/mL) M. catarrhalis (Moraxella catarrhalis; [8]): 25 µg/mL; MIC (μg/mL) A. hydrophila (Aeromonas hydrophila; [9]): 25 µg/mL |
| PRT1196 (DVDLCEPSPCRNGARCYNLEGDYYCACPDDFGGKNCS; listed as Homo sapiens) |  |  |  |  |  |  |  |  | 12.5 |  |  | 50 | 25 | 12.5 | 50 | 50 | 12.5 | 25 | 25 | 25 | MIC against A. hydrophila (Aeromonas hydrophila; 96-well plate, 37° C., 10 h): 25 µg/mL |
| PRT1236 (IGDGCIDMCSGHGRCIQGNCVCDEQWGGLYCD; listed as Homo sapiens) |  |  |  |  |  |  |  |  | 50 |  |  | 12.5 | 12.5 | 12.5 | 25 | 25 | 25 | 50 | 12.5 | 12.5 | MIC against A. hydrophila (Aeromonas hydrophila; 96-well plate, 37° C., 10 h): 50 µg/mL |
| PRT1420 (GAWDCSVENGGCEHACNAIPGAPRCQCPAGAALQADGRSCT; listed as Homo sapiens) | 12.5 | 25 | 12.5 | 50 | 12.5 | 12.5 | 12.5 | 12.5 | 12.5 | 25 | 25 |  |  |  |  |  |  |  |  |  |  |
| PRT436 (DINECEHRNHTCNLQQTCYNLQGGFKCIDPIRCEEPYLRISDNRCM; listed as Homo sapiens) |  |  |  |  |  |  |  |  | 12.5 |  |  |  |  |  |  |  |  |  |  |  | MIC (Citrobacter diversus; [1]): 12.5 µg/mL; MIC (Proteus vulgaris; [2]): 50 µg/mL; MIC (Pseudomonas aeruginosa; [3]): 50 µg/mL; MIC (Serratia marcescens; [4]): 100 µg/mL; MIC (E. coli BL21; 10 h cultivation at 37° C.): 25 µg/mL; MIC (Proteus mirabilis; [5]): 12.5 µg/mL; MIC (Klebsiella pneumonia; [6]): 25 µg/mL; MIC (Enterobacter cloacae; [7]): 12.5 µg/mL; MIC (Moraxella catarrhalis; [8]): 50 µg/mL; MIC (Aeromonas hydrophila; [9]): 50 µg/mL |
